In patent US20220323406A1, “METHODS AND COMPOSITIONS FOR DIFFERENTIATING STEM CELLS” (Massachusetts Institute of Technology, priority 2019, published 2022):

Tests used:
Conditions in all cases: primary screen
[1] = tested on: ENR+CD organoids (ISC to Paneth cell differentiation); experiment: Primary screen: basal (non-stimulated) lysozyme secretion LYZ.NS, 2.5-D 384-well ENR+CD organoid differentiation; assay type: cell-based, mouse
Description: (§1) High-throughput screening.

[2] = tested on: ENR+CD organoids (ISC to Paneth cell differentiation); experiment: Primary screen: CCh-stimulated lysozyme secretion LYZ.S, 2.5-D 384-well ENR+CD organoid differentiation; assay type: cell-based, mouse
Description: as §1

ENR+CD organoids = experiment: Primary screen: ATP (CellTiter-Glo 3D, CTG) cell number/viability, 2.5-D 384-well ENR+CD organoids;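 note: compounds given at plating and again on day 3 over a 6-day differentiation from ENR+CV stem-cell-enriched precursors, ATP measured on day 6, plate median as control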

| Substance | Z.LYZ.NS (standard z score) ([1]; dose 0.08 uM) | Z.LYZ.NS (standard z score) ([1]; dose 0.40 uM) | Z.LYZ.NS (standard z score) ([1]; dose 2.00 uM) | Z.LYZ.NS (standard z score) ([1]; dose 10.00 uM) | Z.CTG (standard z score) (ENR+CD organoids; dose 0.08 uM) | Z.CTG (standard z score) (ENR+CD organoids; dose 0.40 uM) | Z.CTG (standard z score) (ENR+CD organoids; dose 2.00 uM) | Z.CTG (standard z score) (ENR+CD organoids; dose 10.00 uM) | Dose.FC.LYZ.NS (log2 fold change) ([1]; dose 0.08 uM) | Dose.FC.LYZ.NS (log2 fold change) ([1]; dose 0.40 uM) | Dose.FC.LYZ.NS (log2 fold change) ([1]; dose 2.00 uM) | Dose.FC.LYZ.NS (log2 fold change) ([1]; dose 10.00 uM) | Dose.FC.LYZ.S (log2 fold change) ([2]; dose 0.08 uM) | Dose.FC.LYZ.S (log2 fold change) ([2]; dose 0.40 uM) | Dose.FC.LYZ.S (log2 fold change) ([2]; dose 2.00 uM) | Dose.FC.LYZ.S (log2 fold change) ([2]; dose 10.00 uM) | Dose.FC.CTG (log2 fold change) (ENR+CD organoids; dose 0.08 uM) | Dose.FC.CTG (log2 fold change) (ENR+CD organoids; dose 0.40 uM) | Dose.FC.CTG (log2 fold change) (ENR+CD organoids; dose 2.00 uM) | Dose.FC.CTG (log2 fold change) (ENR+CD organoids; dose 10.00 uM) | other results |
| --- | --- | --- | --- | --- | --- | --- | --- | --- | --- | --- | --- | --- | --- | --- | --- | --- | --- | --- | --- | --- | --- |
| BAM7 | 0.391 | −0.082 | 0.498 | −0.063 | 0.498 | −0.024 | −0.373 | −0.272 |  |  |  |  |  |  |  |  |  |  |  |  | Dose.FC.LYZ.NS ([1]; dose 0.08 uM): 0.045 log2 fold change; Dose.FC.LYZ.NS ([1]; dose 0.40 uM): −0.009 log2 fold change; Dose.FC.LYZ.NS ([1]; dose 2.00 uM): 0.057 log2 fold change; Dose.FC.LYZ.NS ([1]; dose 10.00 uM): −0.007 log2 fold change; Dose.FC.LYZ.S ([2]; dose 0.08 uM): 0.079 log2 fold change; Dose.FC.LYZ.S ([2]; dose 0.40 uM): 0.039 log2 fold change; Dose.FC.LYZ.S ([2]; dose 2.00 uM): 0.019 log2 fold change; Dose.FC.LYZ.S ([2]; dose 10.00 uM): −0.020 log2 fold change; Dose.FC.CTG (ENR+CD organoids; dose 0.08 uM): 0.209 log2 fold change; Dose.FC.CTG (ENR+CD organoids; dose 0.40 uM): −0.010 log2 fold change; Dose.FC.CTG (ENR+CD organoids; dose 2.00 uM): −0.156 log2 fold change; Dose.FC.CTG (ENR+CD organoids; dose 10.00 uM): −0.114 log2 fold change |
| HA14-1 | 1.052 | 1.195 | 1.345 | 1.151 | 1.276 | 1.255 | 1.323 | 0.926 | 0.121 | 0.137 | 0.154 | 0.132 | 0.190 | 0.316 | 0.170 | 0.149 | 0.534 | 0.526 | 0.554 | 0.388 |  |
| I-BET151 (GSK1210151A) | −1.010 | −2.159 | −2.601 | −2.473 | −0.039 | −0.415 | −1.200 | −2.233 | −0.116 | −0.248 | −0.299 | −0.284 | −0.242 | −0.344 | −0.416 | −0.408 | −0.016 | −0.174 | −0.502 | −0.935 |  |
| Ifenprodil Tartrate | 0.492 | −0.161 | 1.068 | −1.909 | 0.243 | 0.265 | −0.008 | −2.471 | 0.056 | −0.019 | 0.123 | −0.219 | 0.050 | 0.017 | −0.023 | −0.301 | 0.102 | 0.111 | −0.003 | −1.034 |  |
| Maraviroc | 0.411 | 0.358 | 0.269 | 0.759 |  |  |  |  | 0.047 | 0.041 | 0.031 | 0.087 | 0.054 | 0.195 | 0.005 | 0.077 | −0.084 | 0.079 | −0.009 | 0.139 |  |
